Results on 89 molecules are retold here after a melting point compilation (Tetko et al.; mined from patent text by program, amines drawn as free bases though some values may be those of a salt).

Structures are written as SMILES. Where only a bound is given, the exact number is not on record here.

Broadly, the melting point is the temperature, or range, at which the solid turns liquid. The molecule `O=C1C2=C(NC3(C=N2)SCCS3)c2ccccc21` registered a melting point of 284 to 290 °C. Molecule `CCOc1cccc(-c2ccc3c(c2)C=C(C(=O)Nc2ccc(CN(C)C4CCOCC4)cc2)CCS3(=O)=O)c1` yielded a melting point of 192 to 195 °C. The molecule `C#Cc1ccc(NC(=O)N[C@H](CCC)C(=O)Nc2ccc(N3CCOCC3=O)cc2)cc1` returned a melting point of 182 °C. In turn, `COC(=O)C1Cc2cc3c(cc2C(=O)CS1)OCO3` (centres undefined) came in with a melting point of 165 to 166 °C. With `CCOc1cc(-c2cc(C(F)(F)F)n3ncc(C(=O)Nc4cc(S(=O)(=O)NCCO)sc4Cl)c3n2)ccc1C(F)(F)F`, the melting point turned out to be 250 °C. The same measure for `OCCOCCN1CCN(C2=Nc3ccccc3Sc3ccccc32)CC1`: 172 to 173 °C; for `C/C=C(\Br)C(=O)Nc1cccc(F)c1`: 44 to 45.5 °C; for `CCc1cc(-c2ccc(F)cc2)c(O)cc1OCCCOc1cccc(Oc2ccccc2C(=O)O)c1CC(C)C`: 48 to 49 °C. In turn, `COc1ccc(C(=O)NNC(=O)c2occ(-c3ccccc3)c2-c2ccccc2)cc1F` gave a melting point of 110 to 112 °C.

For the molecule `CCCOc1ccccc1-c1nc2nc(NCCOC)ncc2c(=O)[nH]1`, the melting point is 193 to 194 °C. Consider `C=CCNc1ccc(N(CCO)CCO)cc1[N+](=O)[O-]`, for which the melting point fell in the range of 73 to 75 °C. Take `CC12C=CC(=O)C=C1CCC1C3=CC(O)C(O)(C(=O)CO)C3(C)CC(O)C12` (centres undefined): the melting point lay in the range of 240 to 242 °C. `CCc1cc(OC)c(N)c2ccccc12` registered a melting point of 80 °C. `O=c1[nH]c2cccc3c2n1CCC(NCCO)C3O` (centres undefined) gave a melting point of 220 °C. In the case of `c1ccc2c(c1)c1c(N3CCCC3)nc(N3CCCC3)nc1n2CCn1ccnc1`, the melting point lay in the range of 181 to 183 °C. Molecule `CCCCCCCCC(c1ccccc1)S(=O)(=O)NC(=O)Nc1c(C(C)C)cccc1C(C)C` (centres undefined) registered a melting point of 145 to 146 °C. In turn, `CCCCOC(=O)c1ccc2c(c1)C(=O)NC(C(Cl)(Cl)Cl)O2` (centres undefined) registered a melting point of 134 to 136 °C. For `O=C(O)Cc1cccc(OCCCN(Cc2cccc(F)c2F)CC(c2ccccc2)c2ccccc2)c1`, the melting point was 148 °C. The same measure for `CC(C)c1ncc(O)c(O)n1`: 187 °C. For the molecule `CON=Cc1nc2c(N)nc3ccccc3c2n1CC(C)C`, the melting point was 181 to 183 °C. On to `COc1ccc2ccccc2c1CCN`, for which the melting point is more than 180 °C. In turn, `N#CC1=C(c2cccs2)Nc2n[nH]cc2C1c1cccc2nsnc12` (centres undefined) displayed a melting point of 254 °C. Turning to `O=C(Cc1ccc(Cl)cc1)c1cccs1`, the melting point was in the range of 98 to 99 °C. As to `Clc1ccc2c(Nc3ccc(N4CCOCC4)c(CN4CCCC4)c3)ccnc2c1`, the melting point lay in the range of 187 to 188 °C. The same measure for `COc1ccc(C(=O)Nc2c(Cl)cncc2Cl)c2c3cc(Cl)ccc3n(Cc3ccccc3)c12`: 210 to 213 °C. Regarding `Cc1nc(COc2ccc3c(c2)[C@H](O)[C@H](Cc2cccnc2)CO3)ccc1Br` (relative stereo), the melting point was in the range of 134 to 137 °C. The same measure for `CCNC(C)CCC1(C(N)=O)c2ccccc2-c2ccccc21` (centres undefined): 180 to 182 °C; for `CC[C@H](COCCCc1ccccc1)n1cnc2c(N)nc3ccccc3c21`: 118 to 120 °C; for `CCCCCP(=O)(O)CCCN`: 232 to 236 °C.

On to `Cc1cccc2c1nc(-c1ccccc1F)n2CC(O)C(C)(C)C` (centres undefined), for which the melting point was 178 to 179 °C. Turning to `CC(C)Sc1c(C(N)=O)sc2ccc(OCc3ccccc3)cc12`, the melting point lay in the range of 150 to 152 °C. `O=C(O)COc1ccc(SCc2ccc(OCc3ccc(OC(F)(F)F)cc3)cc2)c2c1CCC2`: the melting point lay within 140 to 142 °C. As to `Cc1c(Cl)cc(C(=O)C=[N+]=[N-])cc1S(N)(=O)=O`, the melting point fell in the range of 174 to 176 °C.

Molecule `CCC(=O)OCC1OC(n2c(Cl)c(C=O)c3cc(Cl)c(Cl)cc32)C(O)C1O` (centres undefined) yielded a melting point of 139 to 140 °C. Take `NS(=O)(=O)OCCOc1cccc(Cl)c1`: the melting point lay in the range of 66 to 69 °C. The molecule `OC(c1cccc(OCc2ccc3ccccc3n2)c1)(c1nccs1)C(F)(F)F` (centres undefined) showed a melting point of 177 °C. In turn, `COC(=O)CCc1oc(Sc2ccc(O)cc2)nc1-c1ccccc1` yielded a melting point of 157 to 158 °C.

As for `CCOC(=O)c1ncc2[nH]c3ccc(P(=O)(CC)CC)cc3c2n1`, the melting point was in the range of 195 to 197 °C. On to `CCOC(=O)C1CCN(Cc2nc(NCc3ccc(OC)c(Cl)c3)c3c4c(oc3n2)CCCC4)CC1`, for which the melting point worked out at 152 °C. `CC(O)c1cccc(Nc2ccccc2C(=O)O)c1Cl` (centres undefined) displayed a melting point of 169 to 171 °C. Turning to `C=CCc1cc(C(C)=O)c(O)cc1OCCCCC(=O)O`, the melting point is 110 to 111 °C. Regarding `O=C1C(Cl)=C(Nc2ccc(O)cc2)C(=O)c2ccccc21`, the melting point came to 233 °C. `O=[N+]([O-])C=Cc1cn(-c2ccccc2)c2ccccc12` gave a melting point of 154 to 155 °C. The same measure for `Cc1ccccc1C1C(C#N)=C(c2ccccc2)Nc2n[nH]cc21` (centres undefined): 246 °C; for `C[C@@H](n1ncn(-c2ccc(-n3ccnn3)cc2)c1=O)[C@](O)(Cn1cncn1)c1ccc(F)cc1F`: 219 to 220 °C. The same measure for `CCCCCCCCc1cc2c(cc1C(C)=O)C(C)(C)CCS2(=O)=O`: 77 to 78 °C; for `Cc1oc2c(C=Cc3c(Cl)cccc3Cl)cccc2c1C`: 93 to 94 °C. The same measure for `O=C(O)c1cc(NCc2ccccc2)c(-c2ccccc2)c([N+](=O)[O-])c1`: 188 to 189 °C. As for `Cc1ccnc(C(=O)n2cc(CC(=O)N(C)C)c3ccc(Cl)cc32)c1`, the melting point was determined as 208 °C. `CC(=O)Nc1cc(C)cc(N)c1` displayed a melting point of 123 °C. In turn, `Cc1ccc(NC(=O)N(C)Cc2cccc3c2C(=O)N(C2CCC(=O)NC2=O)C3=O)cc1Cl` (centres undefined) displayed a melting point of 193 to 195 °C. `CCOC(=O)c1c(N2CCN(C(=O)c3cccs3)CC2)c2cccnc2n(Cc2ccccc2)c1=O`: the melting point was found to be 168 °C. As for `CC1(C)Oc2c(ccc3ccccc23)C2OC21` (centres undefined), the melting point fell in the range of 120 to 121 °C. With `O=C(O)c1ccc2[nH]c3ccccc3c2c1`, the melting point fell in the range of 271 to 272 °C.

As for `CCOc1ccc(OCc2cccc(OCc3nc(-c4ccccc4)oc3C)c2)cc1CCC(=O)O`, the melting point is 136 to 137 °C. Turning to `O=c1nc(N2CCCc3ccccc32)sc2ncccc12`, the melting point was 174 to 175 °C. `N#Cc1cc(-c2ccncc2)c[nH]c1=O` yielded a melting point of more than 300 °C. On to `CCOC(=O)c1cn2c3c(c(F)c(F)cc3c1=O)OCC2CO` (centres undefined), for which the melting point was 268 to 270 °C. As for `CC(C)COC1OC(CO)C(O)C(O)C1(O)N(C(=O)N(CCCl)N=O)C(C)C` (centres undefined), the melting point lay within 83 to 85 °C.

For the molecule `CC#CCOc1ccc(S(=O)(=O)C(CCCCCC#N)C(=O)NO)cc1` (centres undefined), the melting point was found to be 120 °C. The same measure for `CC(=S)NC[C@H]1CN(c2ccc(N3CCN(c4nnc(C)s4)CC3)c(F)c2)C(=O)O1`: 222 to 223 °C; for `O=[N+]([O-])c1ccc(/C=C/c2c(F)cccc2F)cc1`: 136 to 137 °C; for `COC(=O)CCCCc1cc2cc(Cl)ccc2n1S(=O)(=O)c1ccccc1`: 95 to 98 °C. The same measure for `CCC1CCCCN1CC(=O)NN=Cc1c(-c2ccccc2)nn2ccccc12` (centres undefined): 156 to 158 °C; for `CC(Cl)CC(C)Oc1ccc(-c2ccc(C(=O)Oc3ccc(C#N)cc3)cc2)cc1` (centres undefined): 104 °C; for `O=C(OCC(Cl)(Cl)Cl)N1C2CCC1CC(Sc1ccc(F)cc1)C2` (centres undefined): 65 to 67 °C. Molecule `CC1(COc2ccc(Cc3nnn[nH]3)cc2)CCCCC1O` (centres undefined) yielded a melting point of 103 to 108 °C. The molecule `CCc1ccc(NC(=S)SC)cc1` showed a melting point of 78 °C. In turn, `N#Cc1nn(-c2c(Cl)cc(C(F)(F)F)cc2Cl)c(N)c1-c1ccoc1C(F)(F)F` gave a melting point of 155 to 157 °C. In turn, `CC1(C)Oc2ccc(Cl)cc2[C@@H](N2CCCC2=O)[C@@H]1O` (relative stereo) had a melting point of 202 to 203 °C. In turn, `O=C(Nc1ncco1)C1c2ccccc2Sc2ccccc21` gave a melting point of 188 to 191 °C. As for `COC(=O)c1cc(NC(=O)c2cc(Br)ccc2Cl)ccc1-n1nc(C(F)(F)F)cc1C(F)(F)F`, the melting point fell in the range of 75 to 76 °C.

Turning to `CC(=O)C(=NNc1ccccc1)C(=O)N(C)C`, the melting point was in the range of 131 to 133 °C. The same measure for `COc1ccc(C2c3ccccc3C(c3ccc(OC)cc3)C2C(=O)O)cc1` (centres undefined): 192 to 193 °C. In turn, `N#CCOc1ccc2cc(-c3cnc(Cc4ccc5ccccc5c4)o3)ccc2c1` had a melting point of 155 to 158 °C. Molecule `CCc1[nH]n(C2CCCC2)c2nc(Cc3ccc(OCC(=O)O)cc3)nc(=O)c1-2` had a melting point of 218 to 220 °C. `COP(=O)(Cc1cc(C(C)(C)C)c(O)c(C(C)(C)C)c1)OC` registered a melting point of 155 °C. The molecule `CCCC(Cc1ccc(OCCN2CCCCCC2)cc1)(C(=O)O)S(=O)(=O)c1ccc(OC)cc1` (centres undefined) had a melting point of 55 °C.

`NS(=O)(=O)c1ccc(N2CCN(CCC3=CCCc4ccccc43)CC2)cc1`: the melting point came to 222 °C. The same measure for `O=C(c1cc(O)cc2cc(-c3ccc(O)cc3)oc12)C(F)(F)F`: 215 to 216 °C; for `Oc1ccc(-c2nnc(CSCCOc3ccccc3)o2)cc1`: 172 to 175 °C.

As for `CNC(=O)C(=NOC)c1ccccc1COc1ncc(C(=O)O)cc1Cl`, the melting point lay within 189 to 195 °C.

With `CC(C)n1nc(-c2c(-c3ccccc3)nn3ccc(OCC(=O)N4CCN(C(=O)OC(C)(C)C)CC4)cc23)ccc1=O`, the melting point was in the range of 140 to 144 °C. Molecule `CSc1ncc2cc(-c3c(Cl)cccc3Cl)c(N)nc2n1` came in with a melting point of 250 to 253 °C. The molecule `O=C(CNC(=O)c1ccc([N+](=O)[O-])c(I)c1)OCC(Cl)(Cl)Cl` displayed a melting point of 98 to 100 °C.

Turning to `C=CCCC(C(=O)O)(C(=O)O)C(F)F`, the melting point was 80 to 81 °C. The same measure for `Cc1cn2cccc(N[C@@H]3c4ccccc4C[C@H]3O)c2n1` (relative stereo): 188 to 190 °C; for `Cc1c(CC(=O)O)cc2ccc(F)cc2c1Cc1ccc(S(=O)(=O)C(F)(F)F)cc1`: 200 to 201 °C; for `Clc1ccc2c(c1)C(c1ccccn1)=NCc1ccccc1-2`: 153 to 155 °C.
